Measurements published in the supplement of paper PMC10307832.

Experiments:
Assay in all cases: relative viability (nuclei count vs DMSO), 5 days (fraction); higher = more cells survive
[1] = compound: C1CC(C1)(C(=O)O)C(=O)O.[NH2-].[NH2-].[Pt+2] [Carboplatin] + N=C(N)NC(=N)NCCc1ccccc1 [Phenformin] (partner 250 µM)
Outline: (§1)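 Five library-drug doses in √10 steps were combined with a fixed anchor-drug dose, or a single drug was given alone, by pin tool to lung cancer cell lines in 1536-well plates the day after seeding. Nuclei were stained and counted after 5 days. Relative viability is the nuclei count in treated wells over that in vehicle wells, taken as the median of duplicate plates.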

[2] = compound: CC[C@H](C)N1C=C(C2=C(C=C(C=C21)C3=CN=C(C=C3)N4CCNCC4)C(=O)NCC5=C(C=C(NC5=O)C)C)C [GSK126] + CS(=O)(=O)CCNCc1ccc(-c2ccc3ncnc(Nc4ccc(OCc5cccc(F)c5)c(Cl)c4)c3c2)o1 [Lapatinib] (partner 2 µM)
Outline: as §1

[3] = compound: NS(=O)(=O)OC[C@@H]1C[C@@H](n2ccc3c(N[C@H]4CCc5ccccc54)ncnc32)C[C@@H]1O [MLN4924] + N=C(N)NC(=N)NCCc1ccccc1 [Phenformin] (partner 250 µM)
Outline: as §1

[4] = compound: NS(=O)(=O)OC[C@@H]1C[C@@H](n2ccc3c(N[C@H]4CCc5ccccc54)ncnc32)C[C@@H]1O [MLN4924] + O=C(c1cc(Cc2n[nH]c(=O)c3ccccc23)ccc1F)N1CCN(C(=O)C2CC2)CC1 [Olaparib] (partner 8 µM)
Outline: as §1

Row | Cell Line | relative viability ([1]; first compound 0.08 µM) | relative viability ([1]; first compound 0.253 µM) | relative viability ([1]; first compound 0.8 µM) | relative viability ([1]; first compound 2.53 µM) | relative viability ([1]; first compound 8 µM) | relative viability ([2]; first compound 0.08 µM) | relative viability ([2]; first compound 0.253 µM) | relative viability ([2]; first compound 0.8 µM) | relative viability ([2]; first compound 2.53 µM) | relative viability ([2]; first compound 8 µM) | relative viability ([3]; first compound 0.04 µM) | relative viability ([3]; first compound 0.1265 µM) | relative viability ([3]; first compound 0.4 µM) | relative viability ([3]; first compound 1.265 µM) | relative viability ([3]; first compound 4 µM) | relative viability ([4]; first compound 0.04 µM) | relative viability ([4]; first compound 0.1265 µM) | relative viability ([4]; first compound 0.4 µM) | relative viability ([4]; first compound 1.265 µM) | relative viability ([4]; first compound 4 µM)
1 | NCI-H2023 | 0.447 | 0.413 | 0.381 | 0.27 | 0.145 | 1.33 | 0.797 | 1.04 | 1.23 | 1.2 | 0.392 | 0.393 | 0.175 | 0.0707 | 0.0769 | 0.397 | 0.221 | 0.12 | 0.0617 | 0.0657
2 | NCI-H2085 | 0.88 | 0.741 | 0.695 | 0.737 | 0.775 | 0.922 | 0.847 | 0.78 | 0.803 | 0.78 | 0.754 | 0.676 | 0.598 | 0.443 | 0.348 | 0.837 | 0.747 | 0.868 | 0.485 | 0.363
3 | NCI-H2087 | 0.493 | 0.48 | 0.383 | 0.424 | 0.332 | 1.41 | 0.931 | 1.11 | 1.22 | 1.3 | 0.442 | 0.349 | 0.298 | 0.0782 | 0.0942 | 0.552 | 0.54 | 0.281 | 0.159 | 0.0852
4 | NCI-H2126 | 0.591 | 0.525 | 0.537 | 0.503 | 0.492 | 0.758 | 0.792 | 0.726 | 0.819 | 0.782 | 0.566 | 0.566 | 0.432 | 0.321 | 0.304 | 0.862 | 0.668 | 0.618 | 0.258 | 0.246
5 | NCI-H2170 | 0.429 | 0.446 | 0.402 | 0.38 | 0.41 | 0.253 | 0.266 | 0.319 | 0.288 | 0.27 | 0.359 | 0.305 | 0.214 | 0.183 | 0.185 | 0.413 | 0.229 | 0.195 | 0.148 | 0.113
6 | NCI-H2228 | 0.26 | 0.342 | 0.294 | 0.257 | 0.282 | 1.11 | 1.15 | 1.06 | 1.16 | 1.33 | 0.327 | 0.38 | 0.194 | 0.134 | 0.146 | 0.486 | 0.532 | 0.279 | 0.109 | 0.162
7 | NCI-H2347 | 0.36 | 0.382 | 0.583 | 0.534 | 0.324 | 1.04 | 1.04 | 0.917 | 0.994 | 0.94 | 0.376 | 0.453 | 0.381 | 0.21 | 0.302 | 0.666 | 0.605 | 0.512 | 0.4 | 0.376
8 | NCI-H2405 | 0.455 | 0.379 | 0.369 | 0.38 | 0.383 | 1.12 | 1.02 | 1.06 | 1.17 | 1.15 | 0.403 | 0.446 | 0.362 | 0.284 | 0.306 | 0.748 | 0.524 | 0.323 | 0.239 | 0.231
9 | NCI-H3122 | 0.4 | 0.399 | 0.385 | 0.37 | 0.359 | 1.01 | 1.01 | 1.04 | 0.965 | 0.95 | 0.315 | 0.274 | 0.169 | 0.131 | 0.136 | 0.535 | 0.235 | 0.251 | 0.112 | 0.0876
10 | PC-3 [JPC-3] | 0.486 | 0.461 | 0.449 | 0.473 | 0.456 | 0.43 | 0.489 | 0.527 | 0.477 | 0.462 | 0.482 | 0.482 | 0.404 | 0.323 | 0.341 | 1.16 | 1.05 | 0.298 | 0.436 | 0.452
11 | PC-14 | 0.807 | 0.592 | 0.53 | 0.383 | 0.274 | 0.359 | 0.309 | 0.292 | 0.307 | 0.326 | 0.473 | 0.564 | 0.37 | 0.151 | 0.127 | 0.188 | 0.129 | 0.0764 | 0.0624 | 0.0504
12 | RERF-LC-KJ | 0.45 | 0.387 | 0.386 | 0.335 | 0.317 | 0.927 | 0.854 | 0.822 | 0.889 | 0.867 | 0.397 | 0.351 | 0.204 | 0.255 | 0.249 | 0.624 | 0.344 | 0.221 | 0.206 | 0.218
13 | SK-LU-1 | 0.78 | 0.578 | 0.44 | 0.533 | 0.41 | 0.91 | 0.882 | 0.889 | 0.913 | 0.818 | 0.514 | 0.558 | 0.22 | 0.0997 | 0.131 | 0.493 | 0.433 | 0.256 | 0.157 | 0.172
14 | SK-MES-1 | 0.681 | 0.672 | 0.671 | 0.638 | 0.592 | 0.496 | 0.455 | 0.482 | 0.431 | 0.46 | 0.555 | 0.444 | 0.309 | 0.202 | 0.2 | 0.653 | 0.545 | 0.305 | 0.158 | 0.234
15 | SW 1573 | 0.38 | 0.354 | 0.414 | 0.359 | 0.265 | 1.09 | 1.07 | 0.989 | 1.27 | 1.28 | 0.325 | 0.297 | 0.144 | 0.086 | 0.0734 | 0.486 | 0.303 | 0.108 | 0.0465 | 0.07
